Reference: patent US9522192B2 (EPITECH GROUP S.r.l., priority 2012, dated 2016)
Where two headings read alike, the source gives them in different places.

How the values were obtained:
[1] = tested on: carrageenan-induced hyperalgesia; assay: Mechanical hyperalgesia after λ-carrageenan injection into the paw, topical application; assay type: in vivo, mice; conditions: for anti-hyperalgesic effect at earlier times: 2 and 4 h after application; for anti-hyperalgesic activity (paw withdrawal latency): topical on paw, dose equimolar to 1 mg PEA/paw, evaluated 2-96 h after carrageenan
Procedure: Male Swiss mice weighing 25 to 30 g were purchased from Harlan (Udine, Italy). They were housed in stainless steel cages in a room kept at 22±1° C. on a 12/12-h light/dark cycle. […] Each group of mice (n=6) was applied with 0.05 ml of ethanol solutions on dorsal surface of the left paw. After 5 minutes the animal received 50 μl of 1% λ-carrageenan in sterile saline injected into the treated paw. Absolute ethanol was used as vehicle in control animals. […] Mechanical hyperalgesia was assessed by measuring of latency (s) to withdraw the paw from a constant mechanical pressure exerted onto its dorsal surface. A 15-g calibrated glass cylindrical rod (diameter=10 mm) […] to a conical point (diameter=3 mm) was used to exert the mechanical force. The weight was suspended vertically between two rings attached to a stand and was free to move vertically. A cut off time of 90 sec. was used. Results are expressed as mean±S.E.M. of n experiments. All analyses were conducted using Graph-Pad Prism (GraphPad Software Inc., San Diego, Calif.). The significance of differences between groups was determined by Student t-test (for ex vivo experiments) and two-way analysis of variance (ANOVA) followed by Bonferroni post hoc tests for multiple comparisons (for in vivo experiments). Difference with P<0.05 (*) was considered statistically significant.

[2] = Skin accumulation and PEA release after topical application on the paw (lipid extraction, HPLC)
Procedure: (§1) Frozen tissues samples were weighed and homogenized in a solution of methanol and a serine protease inhibitor, phenylmethylsulphonyl fluoride (PMSF, 1 mM). Then, homogenate tissues were subjected to methanol-chloroform-water (1:2:1, v/v/v) extraction. After centrifugation, the organic layer was carefully removed, transferred to another vial and purified by silica gel (60-Å, 230-400 mesh) micro-columns.
(§2) Molecules of interest were isolated by small-scale chromatography. Glass microcolumns (5 cm, ø 50 mm) were used. 1 ml of a mixture (1/1 v/v) of chloroform and silica gel (0.04-0.063 mm, 230-400 mesh, Macherey-Nagel) was used to load the columns. Samples were dissolved in 1 ml of chloroform and then loaded. Columns were washed with 1 ml of chloroform and 2 ml of chloroform/methanol (9/1 v/v), thus obtaining the fractions of interest that were collected and evaporated in vacuum. The extraction method was validated in blank experiments by treating skin with a known amount of each analyzed compound. Recovery percentages were calculated as well and they resulted higher than 85% for all the tested products.
(§3) HPLC analysis was performed on a Jasco apparatus (Jasco inc., Easton, Md., USA) composed by a quaternary gradient pump (PU 2089 Plus), a 25 μl Rheodyne injection valve and a multi-wave length UV detector (MD 2010 Plus). […] The specificity (absence of interfering peak from skin samples) was assessed as well.

[3] = tested on: carrageenan-induced paw oedema; assay: Carrageenan-induced paw oedema, topical application; assay type: in vivo, mice; conditions: for anti-inflammatory effect at earlier times: 2 and 4 h after application; for anti-inflammatory activity (paw volume / paw oedema): topical on paw, dose equimolar to 1 mg PEA/paw, evaluated 2-96 h after carrageenan
Procedure: Male Swiss mice weighing 25 to 30 g were purchased from Harlan (Udine, Italy). They were housed in stainless steel cages in a room kept at 22±1° C. on a 12/12-h light/dark cycle. […] Each group of mice (n=6) was applied with 0.05 ml of ethanol solutions on dorsal surface of the left paw. After 5 minutes the animal received 50 μl of 1% λ-carrageenan in sterile saline injected into the treated paw. Absolute ethanol was used as vehicle in control animals. […] Paw oedema development was measured by a plethysmometer (Ugo Basile, Milan, Italy). The increase in paw volume was evaluated as the difference between the paw volume measured at each time point and the basal paw volume measured at time 0 (before drug application and carrageenan injection). Results are expressed as mean±S.E.M. of n experiments. All analyses were conducted using Graph-Pad Prism (GraphPad Software Inc., San Diego, Calif.). The significance of differences between groups was determined by Student t-test (for ex vivo experiments) and two-way analysis of variance (ANOVA) followed by Bonferroni post hoc tests for multiple comparisons (for in vivo experiments). Difference with P<0.05 (*) was considered statistically significant.

[4] = mouse, in vivo
Procedure: as §1, §2, §3

Water solubility = assay type: physicochemical
[5] = 6-96 h after topical application
[6] = after local application, 1.6 mg/paw
[7] = after local application, 1.72 mg/paw

Molecule: CCCCCCCCCCCCCCCC(=O)NCCO [PEA, Palmitoylethanolamide, reference compound]
- anti-hyperalgesic effect at earlier times [1]: significant
- anti-hyperalgesic effect at later times [1, 5]: no effect
- anti-hyperalgesic activity (paw withdrawal latency) [1]: markedly reduced
- PEA levels in the skin ([2]; after 24 h): return to baseline
- anti-inflammatory effect at earlier times [3]: significant
- anti-inflammatory effect at later times [3, 5]: no effect
- anti-inflammatory activity (paw volume / paw oedema) [3]: markedly reduced

Molecule: CCCCCCCCCCCCCCCC(=O)NCCOC(=O)CCC(=O)OCCOCCO [derivative 8a, N-Palmitoylethanolamine-O-(succinyl(diethylene glycol))]
- anti-hyperalgesic effect at earlier times [1]: No effect
- anti-hyperalgesic activity lasting up to [1, 6]: up to 72 h
- anti-hyperalgesic activity (paw withdrawal latency) [1]: significant
- PEA release sustained / maintained up to ([2]; after topical application): up to 72 hours
- accumulation in the skin ([2]; after topical application): accumulate in the skin and release PEA
- kinetic release of PEA in the skin ([2]; after topical application): faster release
- start of PEA release (relevant amount of PEA detectable) ([2]; after topical application): 2 h
- total amount accumulated in the skin (PEA+derivative) relative to PEA alone ([2]; whole period of analysis): ~10 times
- anti-inflammatory effect at earlier times [3]: No effect
- anti-inflammatory activity lasting up to [3, 6]: up to 72 h
- anti-inflammatory activity (paw volume / paw oedema) [3]: significant

Molecule: CCCCCCCCCCCCCCCC(=O)NCCOC(=O)CCC(=O)OCCOCCOCCO [derivative 8b, N-Palmitoylethanolamine-O-(succinyl(triethylene glycol))]
- time from which anti-hyperalgesic activity is significant [1, 7]: ≥ 2 days
- anti-hyperalgesic activity (paw withdrawal latency) [1]: significant
- time from which anti-inflammatory activity is significant [3, 7]: ≥ 2 days
- anti-inflammatory activity (paw volume / paw oedema) [3]: significant
- accumulation in the skin [4]: accumulate in the skin and release PEA

Molecule: N-[2-methoxypolyethylene glycol(5000)-O-carbonyl-oxy-ethyl]-palmitamide [Example 7]
- Water solubility (Water solubility): > 10000 µg/mL
